Where two headings read alike, the source gives them in different places.
Key:
basophils = assay: Basophil activation in human whole blood (Flow2 CAST kit, CD63 positive cells); type: cell-based
Description: Effect on basophil activation was measured in human whole blood using the Flow2 CAST® kit (Buhlmann Laboratories AG, Baselstrasse, Switzerland) following the protocol provided by the manufacturer with minor modifications. Human whole blood was collected into K2-EDTA venipuncture tubes. Whole blood samples were treated with either DMSO (0.3% final) or a serial dilution of compounds in DMSO for 60 minutes at 37° C. Basophils were then activated either with anti-FcεRI mAb or with fMLP. To activate basophils using the anti-FcεRI mAb; 50 μl of whole blood was mixed with 110 μl of stimulation buffer (B-BAT-STB) and 20 μl of anti-FcεRI (B-BAT-STCON). To activate basophils with fMLP; 50 μl of whole blood was mixed with 80 μl of stimulation buffer (B-BAT-STB) and 50 μl of fMLP (B-CCR-FMLP). Stimulation buffer was used as a negative control. 20 μl of the staining reagent (combination of anti-human CD63-FITC and anti-human CCR3-PE mAbs) was then added to each tube. […] Subsequently, erythrocytes were lysed and fixed by the addition of 2 ml of lysing solution (B-BAT-LYR) for 10 min at room temperature. Cells were pelleted by centrifugation at 1200 rpm for 10 min at room temperature in a swing-out rotor. Supernatant was aspirated and cell pellet resuspended in 400 μl of wash buffer. Flow cytometric analysis of the basophil activation was performed on a FC500MPL flow cytometer (Beckman Coulter Inc., Fullerton, Calif.). CCR3-staining and side scatter were applied to gate at least 200 basophils that expressed a high density of CCR3. The percent CD63 positive cells within the gated basophil population were determined in different treatment groups and normalized to the vehicle control (0.3% DMSO) with anti-FcεRI mAb of fMLP stimulus as 100%. Final compound concentration was adjusted to correct for dilution effect of added reagents. The EC50 values were calculated from the analysis of the dose-response curves to a four-parameter equation. All EC50 values represent geometric mean values and are reported in units of nM.

[1] = Hepatocyte stability, 0.01% final DMSO, 1 μM substrate (t1/2^b); type: in vitro ADME; details: human, hepatocytes, TA with 0.01% final DMSO
Description: Alternatively, assay reagents and/or conditions can be modified in determining the inhibitory activities to PI3K isomers. In additional studies, similar assay using TA and 0.01% final DMSO concentration were incubated with 1 million hepatocytes/mL at 1 μM substrate in duplicate. The incubation was carried out at 37° C. with 5% CO2 and saturating humidity.

PI3Kδ = molecular target: T1, PI3Kδ (Homo sapiens, UniProt O00329); assay: Enzymatic activity of PI3K isoforms, TR-FRET assay (PIP3 formation); type: biochemical; details: PI3Kδ; TR-FRET, 2×Km ATP, 10 μM PIP2; read-out: IC50
T1 construct: made in house
T1 sequence (O00329 whole entry, canonical isoform): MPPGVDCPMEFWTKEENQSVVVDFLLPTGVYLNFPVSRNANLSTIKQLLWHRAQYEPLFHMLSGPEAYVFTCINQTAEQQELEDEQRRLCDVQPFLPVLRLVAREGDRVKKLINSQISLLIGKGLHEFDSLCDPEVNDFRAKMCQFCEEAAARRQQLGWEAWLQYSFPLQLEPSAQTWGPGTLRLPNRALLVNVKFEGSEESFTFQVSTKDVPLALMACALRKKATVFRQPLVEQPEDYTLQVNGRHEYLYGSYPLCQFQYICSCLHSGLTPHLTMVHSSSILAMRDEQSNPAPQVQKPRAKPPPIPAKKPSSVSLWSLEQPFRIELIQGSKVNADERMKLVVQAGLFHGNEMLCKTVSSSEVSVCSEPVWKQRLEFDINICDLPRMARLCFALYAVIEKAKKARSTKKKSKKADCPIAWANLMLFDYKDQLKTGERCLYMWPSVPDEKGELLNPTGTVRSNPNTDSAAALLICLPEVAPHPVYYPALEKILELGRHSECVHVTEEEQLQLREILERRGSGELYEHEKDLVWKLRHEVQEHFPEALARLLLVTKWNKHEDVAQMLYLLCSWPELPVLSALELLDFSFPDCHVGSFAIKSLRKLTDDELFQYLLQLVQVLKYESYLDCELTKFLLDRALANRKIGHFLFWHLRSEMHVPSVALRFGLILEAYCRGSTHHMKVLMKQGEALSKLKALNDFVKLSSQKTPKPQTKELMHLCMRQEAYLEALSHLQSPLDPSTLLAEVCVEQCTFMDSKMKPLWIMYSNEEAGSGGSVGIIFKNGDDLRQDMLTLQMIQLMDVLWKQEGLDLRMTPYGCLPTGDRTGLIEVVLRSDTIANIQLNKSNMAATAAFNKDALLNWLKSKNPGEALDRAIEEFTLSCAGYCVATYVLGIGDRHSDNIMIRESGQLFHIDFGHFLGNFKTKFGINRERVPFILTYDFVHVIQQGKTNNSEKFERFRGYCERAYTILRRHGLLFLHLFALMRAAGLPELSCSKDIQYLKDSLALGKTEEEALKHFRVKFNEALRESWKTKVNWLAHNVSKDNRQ
T1 sequence (P27986 whole entry partner, canonical isoform): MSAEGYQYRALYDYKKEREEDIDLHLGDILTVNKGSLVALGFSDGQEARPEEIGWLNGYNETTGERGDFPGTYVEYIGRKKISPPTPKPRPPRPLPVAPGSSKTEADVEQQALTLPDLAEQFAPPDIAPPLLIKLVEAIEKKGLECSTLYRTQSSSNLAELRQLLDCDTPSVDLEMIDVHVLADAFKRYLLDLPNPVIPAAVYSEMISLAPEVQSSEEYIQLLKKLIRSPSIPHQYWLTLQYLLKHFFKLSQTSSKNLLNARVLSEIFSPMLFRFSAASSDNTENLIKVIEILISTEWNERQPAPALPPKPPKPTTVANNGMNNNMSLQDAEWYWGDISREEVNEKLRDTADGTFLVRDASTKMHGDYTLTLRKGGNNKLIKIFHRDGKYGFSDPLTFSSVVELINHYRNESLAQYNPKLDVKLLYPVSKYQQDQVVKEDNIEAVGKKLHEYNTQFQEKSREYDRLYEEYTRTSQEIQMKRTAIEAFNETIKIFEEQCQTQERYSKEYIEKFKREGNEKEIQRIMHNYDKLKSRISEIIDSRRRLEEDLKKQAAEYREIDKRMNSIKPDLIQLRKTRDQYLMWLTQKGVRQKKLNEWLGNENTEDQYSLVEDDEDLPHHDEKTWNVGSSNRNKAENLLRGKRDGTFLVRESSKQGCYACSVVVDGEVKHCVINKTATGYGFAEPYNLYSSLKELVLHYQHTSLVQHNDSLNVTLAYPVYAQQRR
In short: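 Recombinant heterodimeric class I PI3K; PIP3 product measured by TR-FRET competition with labelled PIP3 for Eu-GRP-1 PH domain. Reaction 30 min at 25 °C, stopped with 10 mM EDTA.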

[2] = Homo sapiens, basophils activated with anti-FcεRI mAb or fMLP, geometric mean
[3] = 1 μM substrate, samples at 0, 1, 3, 6 hours, read-out: human hepatocyte t½^b

| EC50 (basophils; [2]) [nM] | half-life at 1 μM [1, 3] [h] | IC50 (PI3Kδ) [nM] | EC50 (basophils; basophils activated with anti-FcεRI mAb or fMLP, geometric mean) [nM] | EC50 (basophils; Homo sapiens, basophil activation) [nM] | half-life at 1 μM ([1]; human hepatocytes, read-out: t1/2^b) [h] | Structure (SMILES) |
| --- | --- | --- | --- | --- | --- | --- |
| 1 to 10 | > 10 | 1 to 10 |  |  |  | CC(Nc1nc(N)nc(N)c1C#N)c1nc2c(Cl)cccc2c(=O)n1-c1ccccc1 (single isomer, unassigned) [Compound 22a] |
| 1 to 10 | > 10 | 1 to 10 |  |  |  | CCC(Nc1nc(N)nc(N)c1C#N)c1nc2ccc(F)cc2c(=O)n1-c1cccc(F)c1 (single isomer, unassigned) [Compound 178a] |
| 10 to 50 | > 10 | 1 to 10 |  |  |  | CC(Nc1nc(N)nc(N)c1C#N)c1nc2c(C#N)cc(F)cc2c(=O)n1-c1ccccc1 (single isomer, unassigned) [Compound 155a] |
| 1 to 10 | 1 to 3 | < 1 |  |  |  | COc1cccc(-n2c(C(C)Nc3nc(N)nc(N)c3C#N)nc3cccc(Cl)c3c2=O)c1C (single isomer, unassigned) [Compound 109a-2] |
| < 1 | 1 to 3 | < 1 |  |  |  | COc1cccc(-n2c(C(C)Nc3nc(N)nc(N)c3C#N)nc3cccc(Cl)c3c2=O)c1 (single isomer, unassigned) [Compound 185a] |
| 1 to 10 | > 10 | 1 to 10 |  |  |  | CC(Nc1nc(N)nc(N)c1C#N)c1nc2cccc(C(F)F)c2c(=O)n1-c1cccc(C#N)c1 (single isomer, unassigned) [Compound 63a] |
| 1 to 10 | 1 to 3 | 1 to 10 |  |  |  | CC(Nc1nc(N)nc(N)c1Cl)c1nc2c(F)ccc(Cl)c2c(=O)n1-c1ccccc1 (single isomer, unassigned) [Compound 127a] |
| 1 to 10 | 3 to 6 | < 1 |  |  |  | CC(Nc1nc(N)nc(N)c1C#N)c1nc2cccc(Cl)c2c(=O)n1-c1cccc(Cl)c1 (single isomer, unassigned) [Compound 8a] |
| 1 to 10 | 3 to 6 | 1 to 10 |  |  |  | CC(Nc1nc(N)nc(N)c1C#N)c1nc2ccc(F)c(Cl)c2c(=O)n1-c1cc(F)cc(F)c1 (single isomer, unassigned) [Compound 140a] |
| < 1 | 6 to 10 | 1 to 10 |  |  |  | CC(Nc1nc(N)nc(N)c1C#N)c1nc2c(F)ccc(Cl)c2c(=O)n1-c1cccc(C#N)c1 (single isomer, unassigned) [Compound 181a] |
| 1 to 10 | 3 to 6 | 1 to 10 |  |  |  | CC(Nc1nc(N)nc(N)c1C#N)c1nc2cccc(Cl)c2c(=O)n1-c1cccc(C(F)(F)F)c1 (single isomer, unassigned) [Compound 47a] |
|  | 1 to 3 | < 1 | < 1 |  |  | Cc1ccc(C(F)F)cc1-n1c(C(C)Nc2nc(N)nc(N)c2C#N)nc2cccc(Cl)c2c1=O (single isomer, unassigned) [Compound 188a-2] |
| 10 to 50 | > 10 | 10 to 50 |  |  |  | CC(Nc1nc(N)nc(N)c1C#N)c1nc2cccc(C(N)=O)c2c(=O)n1-c1cc(F)cc(F)c1 (single isomer, unassigned) [Compound 91a] |
| 1 to 10 | 6 to 10 | 10 to 50 |  |  |  | CC(Nc1nc(N)nc(N)c1C#N)c1nc2c(C(F)F)cccc2c(=O)n1-c1ccccc1 (single isomer, unassigned) [Compound 56a] |
| 1 to 10 | 3 to 6 | 1 to 10 |  |  |  | CCC(Nc1nc(N)nc(N)c1C#N)c1nc2c(F)ccc(F)c2c(=O)n1-c1ccccc1 (single isomer, unassigned) [Compound 150a] |
| 1 to 10 | > 10 | 10 to 50 |  |  |  | CC(Nc1nc(N)nc(N)c1C#N)c1nc2ccccc2c(=O)n1-c1cc(F)cc(F)c1 (single isomer, unassigned) [Compound 28a] |

| EC50 (basophils; [2]) [nM] | half-life at 1 μM [1, 3] [h] | IC50 (PI3Kδ) [nM] | EC50 (basophils; basophils activated with anti-FcεRI mAb or fMLP, geometric mean) [nM] | EC50 (basophils; Homo sapiens, basophil activation) [nM] | half-life at 1 μM ([1]; human hepatocytes, read-out: t1/2^b) [h] | Structure (SMILES) |
| --- | --- | --- | --- | --- | --- | --- |
| 1 to 10 | > 10 | 10 to 50 |  |  |  | CCC(Nc1nc(N)nc(N)c1C#N)c1nc2ccc(F)cc2c(=O)n1-c1cc(F)cc(F)c1 (single isomer, unassigned) [Compound 26a] |
| 1 to 10 | > 10 | 1 to 10 |  | < 2 | > 20 | CC(Nc1nc(N)nc(N)c1C#N)c1nc2cccc(F)c2c(=O)n1-c1cccc(F)c1 (single isomer, unassigned) [Compound 182a] |
| 1 to 10 | > 10 | 10 to 50 |  |  |  | CC(Nc1nc(N)nc(N)c1C#N)c1nc2ccc(F)cc2c(=O)n1-c1cccc(C#N)c1 (single isomer, unassigned) [Compound 13a] |
| 1 to 10 | 3 to 6 | 10 to 50 |  |  |  | CCC(Nc1nc(N)nc(N)c1C#N)c1nc2c(F)ccc(F)c2c(=O)n1-c1cccc(C#N)c1 (single isomer, unassigned) [Compound 152a] |
| 10 to 50 | 1 to 3 | 1 to 10 |  |  |  | COc1cc(C(F)F)cc(-n2c(C(C)Nc3nc(N)nc(N)c3C#N)nc3cccc(Cl)c3c2=O)c1 (single isomer, unassigned) [Compound 190a] |
| 1 to 10 | > 10 | 10 to 50 |  |  |  | CC(Nc1nc(N)nc(N)c1C#N)c1nc2ccc(F)c(F)c2c(=O)n1-c1cc(F)cc(F)c1 (single isomer, unassigned) [Compound 29a] |
| 1 to 10 | 6 to 10 | 1 to 10 |  |  |  | CCCC(Nc1nc(N)nc(N)c1C#N)c1nc2cccc(F)c2c(=O)n1-c1cc(F)cc(F)c1 (single isomer, unassigned) [Compound 175a] |
| 1 to 10 | 6 to 10 | 10 to 50 |  |  |  | CC(Nc1nc(N)nc(N)c1C#N)c1nc2c(F)ccc(F)c2c(=O)n1-c1cccc(C#N)c1 (single isomer, unassigned) [Compound 149a] |
| 1 to 10 | > 10 | 1 to 10 |  |  |  | CC(Nc1nc(N)nc(N)c1C#N)c1nc2cccc(C#N)c2c(=O)n1-c1cc(F)cc(F)c1 (single isomer, unassigned) [Compound 112a] |
| > 50 | 3 to 6 | 10 to 50 |  |  |  | CC(Nc1nc(N)nc(N)c1C#N)c1nc2cccc(S(C)(=O)=O)c2c(=O)n1-c1cc(F)cc(C(F)F)c1 (single isomer, unassigned) [Compound 98a] |
| 1 to 10 | 3 to 6 | 1 to 10 |  |  |  | CC(Nc1nc(N)nc(N)c1C#N)c1nc2c(C#N)cccc2c(=O)n1-c1cccc(C(F)F)c1 (single isomer, unassigned) [Compound 160a] |
| 1 to 10 | > 10 | 1 to 10 |  |  |  | CC(Nc1nc(N)nc(N)c1C#N)c1nc2cccc(Cl)c2c(=O)n1-c1cccc(C#N)c1 (single isomer, unassigned) [Compound 12a] |
| 1 to 10 | > 10 | 10 to 50 |  |  |  | CC(Nc1nc(N)nc(N)c1C#N)c1nc2ccc(F)c(Cl)c2c(=O)n1-c1cccc(C#N)c1 (single isomer, unassigned) [Compound 176a] |
| 1 to 10 | 1 to 3 | 1 to 10 |  |  |  | CC(Nc1nc(N)nc(N)c1C#N)c1nc2cccc(Cl)c2c(=O)n1-c1cccc(CC(F)F)c1 (single isomer, unassigned) [Compound 120a] |
| 1 to 10 | 6 to 10 | 1 to 10 |  |  |  | CC(Nc1nc(N)nc(N)c1C#N)c1nc2cccc(Cl)c2c(=O)n1-c1c(F)cccc1F (single isomer, unassigned) [Compound 145a] |
| 1 to 10 | > 10 | 1 to 10 |  |  |  | C[C@H](Nc1nc(N)nc(N)c1C#N)c1nc2c(C#N)cc(F)cc2c(=O)n1-c1cccc(F)c1 [Compound 154a, (S)-2-(1-((2,6-diamino-5-cyanopyrimidin-4-yl)amino)ethyl)-6-fluoro-3-(3-fluorophenyl)-4-oxo-3,4-dihydroquinazoline-8-carbonitrile] |
